Data: US5283243A, “Piperidinoalkylbenzoxazine and piperidinoalkylbenzothiazine compounds, and medicaments containing them” (Kali-Chemie Pharma GmbH, priority 1990, dated 1994)
Where two headings read alike, the source gives them in different places.

How the values were obtained:
[1] = tested on: Passive cutaneous anaphylaxis (PCA); experiment: Inhibition of passive cutaneous anaphylaxis (PCA); type: in vivo, Sprague-Dawley rats; conditions: Rattus norvegicus, 1 h, read-out: % inhibition of Passive cutaneous anaphylaxis (PCA)
Method: (§1) 1. Determining Inhibition of Passive Cutaneous Anaphylaxis (PCA) and Histamine-Induced Anaphylactoid Cutaneous Reaction
The PCA reaction is carried out following the methods described by Goose et al. (J.N. Immunology 16 (1969), 749) and by Martin et al. (Arch. Pharmacol. 316 (1981), 186).
The IgE-rich ovalbumin antiserum used in the test was obtained from immunized Brown-Norway rats. The were immunized with an intraperitoneal injection of a mixture of 100 μg of ovalbumin with a Bordetella pertussis suspension (Vaxicoq™, Manufactured by Institute Merieux, containing 5×10^9 organisms and 1.25 mg Al(OH)3). After 20 days the animals were re-immunized with a further intraperitoneal injection of a solution of 10 μg ovalbumin in 0.5 ml physiological saline solution. After a further four days the blood was removed from the animals and centrifuged. The resulting antiserum was stored at -20° C. until use.
(§2) The inhibition of the passive cutaneous anaphylaxis and of the anaphylactoid cutaneous reaction induced by histamine was determined as follows:
Sprague-Dawley rats having a body weight of 150-180 g were injected intradermally in one flank with 50 μl of a 1:75 dilution of the IgE-rich ovalbumin antiserum in physiological saline solution to passively sensitize them to ovalbumin.
24 hours after sensitization a solution of 8.25 mg/kg of ovalbumin and 26.4 mg/kg of a blue dye (Evans's Blue) was administered to the rats intravenously according to Martin et al. to trigger passive cutaneous anaphylaxis.
(§3) On the day of the experiment the test substances were dissolved in distilled water which contained 1 vol. % dimethylformamide and 1 vol. % of Tween™ 20 (=polyoxyethylene (20) sorbitan monolaurate). One hour before administration of the ovalbumin challenge, each animal was orally administered 2×10^-5 mole/kg of test substance in 0.5 ml of solution. For comparison purposes a control group received only the solvent.
(§4) The edematous anaphylactic (PCA) and anaphylactoid (histamine-induced) reactions caused by the stimulation of the intravenous ovalbumin injection, which manifested themselves by edema formation, swelling and exudation of blue dye, were evaluated 30 minutes after their initiation by the intravenous ovalbumin injection. This was done by visually determining the extent to which the blue dye emerged at the sites of edema formation. The percentage inhibition of anaphylactic and anaphylactoid reactions induced by the test substances in comparison with the reactions of the control animals not treated with any test substance was determined using comparison scales.
(§5) The results obtained using compounds of formula I according to the foregoing test methods are shown in the following Table A. The example numbers given for the compounds of formula I relate to the subsequent preparative examples.

[2] = tested on: Histamine-induced anaphylactoid reaction; experiment: Inhibition of histamine-induced anaphylactoid cutaneous reaction; type: in vivo, Sprague-Dawley rats; conditions: Rattus norvegicus, 1 h, read-out: % inhibition of Histamine-induced anaphylactoid reaction
Method: as §1, §2
To determine the histamine-induced anaphylactoid skin reaction, the animals are injected intradermally in the flank opposite to the antiserum administration with 50 μl of a physiological saline solution containing 0.8 mg/ml histamine directly before the intravenous injection of the solution containing the ovalbumin and the blue dye.
as §3, §4, §5

mice = experiment: Determination of minimum toxic dose; type: in vivo; conditions: mouse, per os; lowest dose producing death or severe toxic symptoms, maximum dose 300 mg/kg, 24 hours
Method: 2. Determination of Minimum Toxic Dose
Maximum doses of 300 mg/kg of the test substance were administered orally to male mice weighing 20-25 g. The animals were observed carefully for 3 hours for toxicity symptoms. In addition, all symptoms and deaths were recorded over a period of 24 hours after administration. Associated symptoms were also observed and recorded. If death or severe toxic symptoms were observed, additional mice were administered increasingly lower doses. The lowest dose which produced death or severe toxic symptoms is given in the following Table B as the minimum toxic dose.

[3] = tested on: 5-lipoxygenase (LTC4 release); experiment: 5-Lipoxygenase inhibition: LTC4 release from zymosan-stimulated mouse peritoneal macrophage cells; type: cell-based; conditions: Peritoneal macrophage cell; zymosan-stimulated mouse peritoneal macrophage cells, 10^-5 mole/l; read-out: In vitro % inhibition upon release of LTC4
Excerpt: (§6) 5. In vitro Determination of Cyclooxygenase Inhibition and 5-Lipoxygenase Inhibition
(§7) After a cell is activated, arachidonic acid contained in cell membranes is metabolized in two ways. Leucotrienes, inter alia leucotriene C4, are formed due to the action of the enzyme 5-lipoxyqenase (=5-LO), and prostanoids are formed due to the action of the enzyme cyclooxygenase (=CO). In in vitro systems these metabolites are secreted from the cell.
(§8) To evaluate the cyclooxygenase-inhibiting and 5-lipoxygenase-inhibiting properties of the test substances, their inhibitory activity on the biosynthesis of the arachidonic acid derivatives leucotriene C4 (=LTC4) and 6-keto-prostaglandin F1α (=6-keto-PGF1 α) was determined in vitro on mouse peritoneal macrophage cells. For this purpose the LTC4 and 6-keto-PGF1 α contents of a mouse peritoneal macrophage cell culture medium were determined by zymosan stimulation as described by Scott et al. (J. Exp. Med. 152 (1980), 324-335) and by Fradin et al., (Prostaglandins, 33 (1987), 579-589).
(§9) A cell suspension containing peritoneal cells from male mice 8-10 weeks old was obtained in a known manner. A solution marketed under the designation RPMI 1640 (Manufactured by Gibco) was used as the cell culture medium, to which heparin (10 international units/ml) and antibiotics were added according to the procedure of Bonney et al. (Biochem. J. 176 (1978) 422-433). The cell suspension was adjusted to a cell concentration of 10^6 cells per ml and distributed uniformly on titer dishes containing 24 1-ml titer cells (wells). These were kept for two hours in a humidified incubator filled with air enriched with 7% CO2. Cells not adhering to the titer well walls were then removed by washing. The remaining macrophage cells adhering to the walls were incubated for about 12 hours in a suspension medium to which 0.1% of bovine serum albumin (BSA=Bovine Serum Albumin) was added. The suspension medium was then replaced by a Hanks salt solution (=Hanks Balanced Salt Solution=HBSS) with 10 mmoles of Hepes (=hydroxyethylpiperazinoethanesulfonic acid) to which a 0.1% strength solution of the test substances in aqueous, 1% strength dimethylformamide or only the solvent had been added. After 15 minutes the arachidonic acid metabolism was stimulated by adding […] of zymosan (=glycoprotein mixture isolated from cell walls of beer yeast, Saccharomyces cerevisiae, Manufactured by Sigma Chemical Co., Munich) per titre cell. After 2 hours samples of the respective supernatant liquid in each cell were examined for their 6-keto-PGF1α and LTC4 contents by an enzyme immunoassay (=EIA). This EIA is carried out following the method of Pradelles et al. (Analytical Chem. 57 (1985), 1170-1173). The determination of LTC4 and the determination of 6-keto-PGF1α were each carried out on suitable dilutions of the samples (1:50 to 1:250 for the LTC4 determination and 1:250 to 1:1,250 for the 6-keto-PGF1α determination) in comparison with a comparative scale. To determine the inhibiting effect of a 10^-5 molar concentration of the compounds, the amounts of reference eicosanoid were determined, and the inhibiting effect was calculated therefrom in % inhibition compared to the measurements of the zymosan controls.

[4] = tested on: cyclooxygenase (6-keto-PGF1α release); experiment: Cyclooxygenase inhibition: 6-keto-PGF1α release from zymosan-stimulated mouse peritoneal macrophage cells; type: cell-based; conditions: Peritoneal macrophage cell; zymosan-stimulated mouse peritoneal macrophage cells, 10^-5 mole/l; read-out: In vitro % inhibition upon release of 6-keto-PGF1α
Excerpt: as §6, §7, §8, §9

histamine-(H1)-receptor = biological target: T1, histamine-(H1)-receptor (Cavia porcellus, UniProt P31389); experiment: Anti-histamine-(H1) effect, inhibition of histamine-induced contraction of isolated guinea pig ileum in vitro; type: cell-based, Dunkin Hartley guinea pigs; conditions: histamine 5 × 10^-6 mole/l, test substance 10^-6 mole/l
T1 construct: Segments of the ileum 1.5 cm long from Dunkin Hartley guinea pigs; from tissue; host or cells: isolated ileum segments of Dunkin Hartley guinea pigs
Method: 3. Investigation of Anti-Histamine-(H1) Effect Based on Histamine-(H1)-Receptor Antagonism In Vitro
To investigate the histamine-(H1)-receptor antagonism of the test substances, the inhibiting effect of the substances on histamine-induced contractions of the smooth muscle was determined in vitro on the isolated organ. Isolated strips of organ from the ileum are suitable for this purpose. In an organ bath of physiological saline solution the smooth muscle strips react to the addition of histamine by contracting. […] The extent of regression of the contraction is an indication of the anti-histamine-(H1) activity of the compounds. The investigation was carried out analogously to the method originally described by Magnus (Pfluegers Arch. 102, 123 (1904)). Procedure for determining the smooth muscle contraction inhibiting effect on isolated guinea pig ileum induced by a 5×10^-6 molar histamine concentration.
Segments of the ileum 1.5 cm long from Dunkin Hartley guinea pigs having a body weight of 300 500 g were used for the test. Each strip was placed in an organ bath of 10 ml of physiological saline solution according to Krebs-Henseleit and attached to a conventional apparatus for isotonic measurement of changes in length of the ileum strips (automated Celaster measuring apparatus), so that the tissue was under 1 g of tension. The bath was kept at a pH of 7.4 and gassed with a mixture of 5% CO2 and 95% 02. After an equilibration phase, an isotonic contraction of the tissue was induced by adding histamine in a final concentration of 5×10^-6 mole/liter and washing it out again after a contact time of 30 seconds. Only tissues samples from which three reproducible contractions were obtained at 10 minute intervals were used in the subsequent test. The test substances were then added in a final concentration of 10^-6 mole/liter, and after 30 seconds contact time histamine was again added up to a concentration of 5×10^-6 mole/liter. The resulting contractions were measured over 30 seconds. The tissue was then washed several times over a period of 10 minutes. Histamine was then added again to stimulate a contraction. The resulting contractions were again measured over 30 seconds. The difference between the amplitude of the contraction obtained by histamine addition alone and the amplitude of the contraction obtained in the presence of the test substance was determined and expressed in terms of % inhibition.
The inhibiting effects on the contractions induced by histamine 30 seconds after administration of the test substance and on the contractions induced by the addition of histamine 10 minutes later are listed in the table.

[5] = rats, 2 × 10^-5 mole/kg dose per os, one hour before ovalbumin challenge
[6] = rats, 2 × 10^-5 mole/kg dose per os, one hour before challenge

T1 sequence (P31389 whole entry): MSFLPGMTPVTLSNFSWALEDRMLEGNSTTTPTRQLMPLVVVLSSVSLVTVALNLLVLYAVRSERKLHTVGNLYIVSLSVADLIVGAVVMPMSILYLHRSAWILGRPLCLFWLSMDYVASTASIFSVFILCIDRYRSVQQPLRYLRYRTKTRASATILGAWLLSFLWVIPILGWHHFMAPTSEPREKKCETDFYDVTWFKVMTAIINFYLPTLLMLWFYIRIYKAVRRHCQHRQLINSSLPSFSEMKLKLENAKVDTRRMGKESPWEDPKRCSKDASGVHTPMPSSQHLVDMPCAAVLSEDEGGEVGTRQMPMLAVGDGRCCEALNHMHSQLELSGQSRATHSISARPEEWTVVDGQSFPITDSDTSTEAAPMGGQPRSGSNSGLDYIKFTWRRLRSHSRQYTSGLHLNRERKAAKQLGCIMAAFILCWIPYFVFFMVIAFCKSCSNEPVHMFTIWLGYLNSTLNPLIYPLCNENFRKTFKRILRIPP

Compound | inhibition in vivo at 20 µmol/kg [1, 5] [%] | inhibition in vivo at 20 µmol/kg [2, 6] [%] | Minimum toxic dose (mice) [mg/kg] | inhibition at 10 µM [3] [%] | inhibition at 10 µM [4] [%] | further results
O=C1Nc2ccc(Cl)cc2SC1CCCCN1CCC(Nc2nc3ccccc3n2Cc2ccc(F)cc2)CC1 (centres unmarked) [Example 20] | 20 | 40 |  |  |  | 
O=C1Nc2ccccc2OC1CCCCN1CC=C(c2ccccc2)CC1 (centres unmarked) [Example 12] | 35 | 20 |  |  |  | 
O=C1Nc2ccccc2SC1CCCCN1CC=C(c2ccccc2)CC1 (centres unmarked) [Example 10, 2-[4-(4-phenyl-1,2,3,6-tetrahydropyridin-1-yl)-butyl]-2H-1,4-benzothiazine-3(4H)one] | 55 | 30 | 300 | 37 | 30 | 
O=C1Nc2ccccc2SC1CCCCN1CCC(Nc2nc3ccccc3n2Cc2ccc(F)cc2)CC1 (centres unmarked) [Example 1, 2-{4-[4-(N-(1-(4-fluorophenylmethyl)-1H-benzimidazol-2-yl)-amino)-piperidin-1-yl]-butyl}-2H-1,4-benzothiazine-3(4H)-one] | 85 | 85 |  | 87 | 52 | 
O=C1Nc2ccccc2SC1CCCCN1CCC(O)(c2ccccc2)CC1 (centres unmarked) [Example 11] | 45 | 20 |  |  |  | 
O=C1Nc2ccccc2OC1CCCCN1CCC(c2ccccc2)CC1 (centres unmarked) [Example 9] |  |  |  |  |  | in vitro (H1)-receptor antagonism, % inhibition of histamine-induced ileum contractions after 30 seconds (histamine-(H1)-receptor): 35%; in vitro (H1)-receptor antagonism, % inhibition of histamine-induced ileum contractions after 10 minutes (histamine-(H1)-receptor): 12%
O=C1Nc2ccccc2OC1CCCCN1CCC(O)(c2ccccc2)CC1 (centres unmarked) [Example 13] |  |  |  |  |  | in vitro (H1)-receptor antagonism, % inhibition of histamine-induced ileum contractions after 30 seconds (histamine-(H1)-receptor): 49%; in vitro (H1)-receptor antagonism, % inhibition of histamine-induced ileum contractions after 10 minutes (histamine-(H1)-receptor): 8%
N#CC1(c2ccccc2)CCN(CCCCC2Sc3ccccc3NC2=O)CC1 (centres unmarked) [Example 15] |  |  | 300 |  |  | inhibition in vivo at 20 µmol/kg [1]: 30%; inhibition in vivo at 20 µmol/kg [2]: 10%
S=C1Nc2ccccc2OC1CCCN1CCC(Cc2ccccc2)CC1 (centres unmarked) [Example 3, 2-[3-(4-benzylpiperidin-1-yl)-propyl]-2H-1,4-benzoxazine-3(4H)-thione] |  |  | 300 | 16 | 17 | 
O=C1Nc2ccccc2SC1N1CCC(Cc2ccccc2)CC1 (centres unmarked) [Example 16] |  |  | > 300 | 97 | 70 | 
O=C1Nc2ccccc2OC1CCCN1CCC(Cc2ccccc2)CC1 (centres unmarked) [Example 2, 2-[3-(4-benzylpiperidin-1-yl)-propyl]-2H-1,4-benzoxazine-3(4H)-one] |  |  |  | 54 | 13 | 
O=C(c1ccc(F)cc1)C1CCN(C2Sc3ccccc3NC2=O)CC1 (centres unmarked) [Example 4, 2-[4-(4-fluorobenzoyl)-piperidin-1-yl]-2H-1,4-benzothiazine-3(4H)-one] |  |  | 300 | 0 | 71 | 
COc1ccc2c(c1)SC(CCCCN1CCC(C(=O)c3ccc(F)cc3)CC1)C(=O)N2 (centres unmarked) [Example 18, 7-methoxy-2-(4-[4-(4-fluorobenzoyl)-piperidin-1-yl]-butyl)-2H-1,4benzothiazine-3(4H)-one] | 90 | 50 |  |  |  | 
